Assay results from patent publication US8445517B2, “Stat modulators” (Dana-Farber Cancer Institute, priority 2009, dated 2013).
“Also recorded” adds a separate entry of the source. Where a name gives a salt, the structure may show the parent alone.

Columns and labels:
Stat1 [1] = test: Mechanistic studies of Stat1 tyrosine phosphorylation; type: cell-based
[2] = test system: MCF-7 breast cancer cells; test: Growth inhibition by IFN-γ in breast cancer cells; type: cell-based, human; conditions: Stat1-dependent; MCF-7 cells (FIG. 8)
Stat1 [3] = test: Stat1 luciferase reporter cell screen (NIH3T3 cells, IFN-γ stimulated); type: cell-based; conditions: screen for enhancers of Stat1 function
Method: A cell-based assay system for each Stat1, Stat3 and Stat5 was developed to identify compounds that modulate the respective Stat activity. Although the details for each system are slightly different, as described below, the basic principle are the same. […]
Cells were selected in geneticin (G418) to isolate clones that had stably integrated the plasmid. Individual clones were isolated and luciferase expression was measured by luminometry in the presence and absence of a stimulator of the specific Stat of interest. […]
All three cell-based screening systems were adapted for use in 384-well plates, which were then used to screen a library of 1120 compounds (the Prestwick Myeloma Collection available from Prestwick Chemical, Illkirch, France). […] After 6 hours, 40 μl of 0.5× Bright-Glo luciferase substrate (diluted in PBS) is added, and luciferase activity is quantitated on a Luminoskan luminometer (Helsinki, Finland). […]

endogenous Stat1 genes = test: Expression of endogenous Stat1 target genes (quantitative real-time PCR); type: cell-based
Method: This is followed by another confirmation assay utilizing quantitative real-time PCR measuring expression of endogenous target genes of each Stat. In this assay the cells are incubated as described above. However, after the incubation the cells are lysed and assessed for increased or decreased expression of target genes specific for the respective Stat molecule, e.g., Stat1, interferon-responsive factor (IRF)-1, GADD45[…], and IFI-16; for Stat3, SOCS3, BCL-6, and KLF-4; and, for Stat5, CIS, PIM-1, and MMP3.

Stat3 = Stat3 luciferase reporter cell assay (U3A cells, IL-6 stimulated); type: cell-based; conditions: for inhibition of Stat3 activity in validation studies: compounds tested individually, dose responses analyzed, selective versus NF-κB; for enhancement of Stat3 function: Stat3-dependent luciferase screen; for Stat3-dependent luciferase activity, primary screen: library screen in 384-well plates, IL-6 stimulated; for induction of luciferase in the Stat3 reporter system: cytokine treatment, test of reporter specificity
Excerpt: A cell-based assay system for each Stat1, Stat3 and Stat5 was developed to identify compounds that modulate the respective Stat activity. Although the details for each system are slightly different, as described below, the basic principle are the same. Appropriate cell lines (NIH3T3 for Stat1, U3A for Stat3, and T47D for Stat5) were transfected with a plasmid containing a luciferase reporter gene under the control of a promoter responsive to the indicated Stat, e.g., Stat1, Stat3 or Stat5, as well as a neomycin phosphotransferase cassette (BRIGHT GLO Luciferase Assay Kit available from Promega (Madison, Wis.). The reporter plasmid used in the Stat1 and Stat3 cell lines is described in Lynch et al., Cancer Research, 67:1254-61 (2007), which is herein incorporated by reference in its entirety. The nuclic acid binding sequence of Stat5 use in the reporter plasmid is denoted as region B in Walker et al., Oncogene, 26:224-233 (2007), which is herein incorporated by reference in its entirety.
Cells were selected in geneticin (G418) to isolate clones that had stably integrated the plasmid. Individual clones were isolated and luciferase expression was measured by luminometry in the presence and absence of a stimulator of the specific Stat of interest. Clones having a low basal luciferase expression, prominent induction by a specific stimulus (IFN-γ for Stat1, (IL)-6 for Stat3 and prolactin for Stat5), no induction with an irrelevant stimulus, and stable properties after prolonged cell culture or cryopreservation and thawing were selected. […] Several of these cell lines for each Stat construct were deposited with American Type Culture Collection of Manassas, Va. For example, cell lines having the Stat1 inducible promoter were deposited under ATCC Nos. Cell lines having the Stat3 inducible promoter were deposited under ATCC Nos. Cell lines having the Stat5 inducible promoter were deposited under ATCC numbers Nos.
To ensure the specificity of the reporter systems, the Stat3 reporter cell line and the NF-κB reporter system were compared. Each cell type was either untreated, treated with IL-6 (which activates Stat3 in both systems) or treated with TNF-α (which activates NF-κB in both).
All three cell-based screening systems were adapted for use in 384-well plates, which were then used to screen a library of 1120 compounds (the Prestwick Myeloma Collection available from Prestwick Chemical, Illkirch, France). […] Briefly, 2,500 cells are plated per well in 30 μl of medium in a 384 well plate and grown in Dulbecco's modified Eagle's medium (DMEM) supplemented with 10% fetal calf serum in an incubator with a 95% air/5% CO2 atmosphere at 37° C. After a 16 hour incubation to allow cells to adhere, 100 nl of the test compound is added per well and incubated for one hour, after which the activating cytokine (IFN-γ, IL-6, and prolactin, respectively) are added to each well in 10 μl of medium. After 6 hours, 40 μl of 0.5× Bright-Glo luciferase substrate (diluted in PBS) is added, and luciferase activity is quantitated on a Luminoskan luminometer (Helsinki, Finland).

NF-κB = NF-κB luciferase reporter cell assay (293T cells, TNF-α stimulated); type: cell-based; conditions: for NF-κB activity, primary screen: NF-κB luciferase reporter, control for non-specific effects; for induction of luciferase in the NF-κB reporter cells: cytokine treatment, test of reporter specificity
Method: A parallel system was also developed in which luciferase was under the control of the transcription factor NF-κB (cell lines deposited on under ATCC Nos.). When these 293T cells are treated with tumor necrosis factor (TNF)-α, they show prominent induction of luciferase. This provided an independent control to exclude non-specific effects.
To ensure the specificity of the reporter systems, the Stat3 reporter cell line and the NF-κB reporter system were compared. Each cell type was either untreated, treated with IL-6 (which activates Stat3 in both systems) or treated with TNF-α (which activates NF-κB in both). IL-6 led to approximately a five-fold induction of luciferase in the Stat3 reporter system, but induced no change in the NF-κB reporter cells. Conversely, TNF-α induced a 12-fold induction of luciferase in the NF-κB reporter cells, but led to no change in the Stat3-reporter system. The Stat1 and Stat5 reporter systems show similar characteristics. All three cell-based screens are able to reproducibly identify active and specific compounds.
The compounds that show selective activity in the primary screen (e.g., 25% or more difference in luciferase activity in the presence versus the absence of the compound and less than 12% difference in luciferase activity in the Nf-κB assay in the presence versus the absence of the compound) were then validated in a dose-response assay using the appropriate reporter cell lines.

With `Oc1ccccc1-c1ccc2cccnc2n1` [2-(1,8-Naphthyridin-2-yl)phenol] the “magnitude and duration of Stat1 tyrosine phosphorylation” value (Stat1 [1]) was “increasing”, the “growth inhibitory effects of IFN-γ on human breast cancer cell lines” value [2] was “accentuated; also recorded: enhances” and the “Stat1 modulator class as named in figure legend” value (Stat1 [3]) was “Stat1 activator”. The “expression of endogenous Stat1 genes” value (endogenous Stat1 genes) was “enhanced”.

With `O=S1(=O)CCC(OC2CCS(=O)(=O)C2)C1` (stereo not drawn) [3,3′-oxybis[tetrahydrothiophene, 1,1,1′,1′-tetraoxide] the “Stat3 modulator class as named in figure legend” value (Stat3) was “Stat3 inhibitor”.

In the case of `CCCN(CCC)C(=O)CC(c1ccccc1)c1ccccc1O` (stereo not drawn) [3-(2-hydroxyphenyl)-3-phenyl-N,N-dipropylpropanamide], the “inhibition of Stat3 activity in validation studies” value (shortened to “inhibition of Stat3 activity”) (Stat3) is reported as “significantly and specifically inhibit Stat3 activity”.

With `Nc1ncnc2c1ncn2[C@@H]1O[C@H](COP(=O)(O)O)[C@@H](O)[C@H]1O.O` [adenosine 5′-monophosphate monohydrate] the “enhancement of Stat3 function” value (Stat3) was “specifically enhance Stat3 function”.

`C=CCc1ccccc1OCC(O)CNC(C)C` (stereo not drawn) [alprenolol hydrochloride] was tested, and the “inhibition of Stat3 activity” value (Stat3) was “significantly and specifically inhibit Stat3 activity”.

`C[C@@H]1C[C@@H]([C@H](O)CC2CC(=O)NC(=O)C2)C(=O)[C@@H](C)C1` [cycloheximide] was tested, and the “NF-κB activity, primary screen” value (NF-κB) was “inhibited both” and the “Stat3-dependent luciferase activity, primary screen” value (shortened to “Stat3-dependent luciferase activity”) (Stat3) was “inhibited both”.

For `COc1cccc2c1C(=O)c1c(O)c3c(c(O)c1C2=O)C[C@@](O)(C(C)=O)C[C@@H]3O[C@H]1C[C@H](N)[C@H](O)[C@H](C)O1` [daunorubicin], the “NF-κB activity, primary screen” value (NF-κB) was “inhibited both” and the “Stat3-dependent luciferase activity” value (Stat3) was “inhibited both”.

In the case of `COc1cccc2c1C(=O)c1c(O)c3c(c(O)c1C2=O)C[C@@](O)(C(=O)CO)C[C@@H]3O[C@H]1C[C@H](N)[C@H](O)[C@H](C)O1` [doxorubicin], the “NF-κB activity, primary screen” value (NF-κB) is reported as “inhibited both” and the “Stat3-dependent luciferase activity” value (Stat3) is reported as “inhibited both”.

For `CNCCC(Oc1ccc(C(F)(F)F)cc1)c1ccccc1` (stereo not drawn) [fluoxetine hydrochloride], the “inhibition of Stat3 activity” value (Stat3) was “significantly and specifically inhibit Stat3 activity”.

With `N=C(N)N/N=C/c1c(Cl)cccc1Cl` [guanabenz acetate] the “inhibition of Stat3 activity” value (Stat3) was “significantly and specifically inhibit Stat3 activity”.

With `O=P1(NCCCl)OCCCN1CCCl` (stereo not drawn) [ifosfamide] the “inhibition of Stat3 activity” value (Stat3) was “significantly and specifically inhibit Stat3 activity”.

With `COC(=O)Nc1nc2ccc(C(=O)c3ccccc3)cc2[nH]1` [mebendazole] the “enhancement of Stat3 function” value (Stat3) was “specifically enhance Stat3 function”.

With `O=C1c2c(O)ccc(O)c2C(=O)c2c(NCCNCCO)ccc(NCCNCCO)c21` [mitoxantrone] the “NF-κB activity, primary screen” value (NF-κB) was “inhibited both” and the “Stat3-dependent luciferase activity” value (Stat3) was “inhibited both”.

In the case of `CCOC(=O)Nc1ccc2c(c1)N(C(=O)CCN1CCOCC1)c1ccccc1S2` [moricizine hydrochloride], the “inhibition of Stat3 activity” value (Stat3) is reported as “significantly and specifically inhibit Stat3 activity”.

For `O=C(N/N=C/c1ccc([N+](=O)[O-])o1)c1ccc(O)cc1` [nifuroxazide], the “inhibition of Stat3 activity” value (Stat3) was “significantly and specifically inhibit Stat3 activity”.

In the case of `COC(=O)Nc1nc2ccc(C(=O)c3cccs3)cc2[nH]1` [nocodazole], the “enhancement of Stat3 function” value (Stat3) is reported as “specifically enhance Stat3 function”.

With `CNCCC=C1c2ccccc2CCc2ccccc21` [nortriptyline hydrochloride] the “enhancement of Stat3 function” value (Stat3) was “specifically enhance Stat3 function”.

In the case of `COc1cc([C@@H]2c3cc4c(cc3[C@H](O)[C@H]3COC(=O)[C@H]23)OCO4)cc(OC)c1OC` [podophyllotoxin], the “enhancement of Stat3 function” value (Stat3) is reported as “specifically enhance Stat3 function”.

`CN(C)CCCN1c2ccccc2Sc2ccccc21` [promazine hydrochloride] was tested, and the “enhancement of Stat3 function” value (Stat3) was “specifically enhance Stat3 function”.

`CC[N+](C)(CC)CCC[n+]1c(-c2ccccc2)c2cc(N)ccc2c2ccc(N)cc21.[I-].[I-]` [propidium iodide] was tested, and the “NF-κB activity, primary screen” value (NF-κB) was “inhibited both” and the “Stat3-dependent luciferase activity” value (Stat3) was “inhibited both”.

In the case of `NC(=O)c1ncn([C@@H]2O[C@H](CO)[C@@H](O)[C@H]2O)n1` [ribavirin], the “enhancement of Stat3 function” value (Stat3) is reported as “specifically enhance Stat3 function”.

`CN(C)C/C=C(/c1ccc(Br)cc1)c1cccnc1` [zimelidine dihydrochloride monohydrate] was tested, and the “enhancement of Stat3 function” value (Stat3) was “specifically enhance Stat3 function”.

For “IL-6: cytokine which activates Stat3; specific stimulus of the Stat3 reporter”, the “induction of luciferase in the NF-κB reporter cells” value (NF-κB) was “no change” and the “induction of luciferase in the Stat3 reporter system” value (Stat3) was “five-fold”.

For TNF-α, the “induction of luciferase in the NF-κB reporter cells” value (NF-κB) was 12 fold and the “induction of luciferase in the Stat3 reporter system” value (Stat3) was “no change”.

For deptropine citrate, the “enhancement of Stat3 function” value (Stat3) was “specifically enhance Stat3 function”.

In the case of solanine alpha, the “inhibition of Stat3 activity” value (Stat3) is reported as “significantly and specifically inhibit Stat3 activity”.
